Test results from ChEMBL document CHEMBL1201862, “PubChem BioAssay data set” (2004).
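All cell lines were grown in 96-well plates and treated with compound for 48 hours. The concentration for 50% growth inhibition is given as GI50.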 The source made the active and inactive calls. Cut-off read from the data, not from the text of the source: active = GI50 up to about 1.1 µM and inactive = higher.

Experiments:
Assay in all cases: NCI-60 cell line screen, 48 h
NCI-H226 = test system: NCI-H226
OVCAR-3 = test system: OVCAR-3
CAKI-1 = test system: CAKI-1
RXF 393 = test system: RXF 393
COLO 205 = test system: COLO 205
NCI-H23 = test system: NCI-H23
IGROV-1 = test system: IGROV-1
BT-549 = test system: BT-549
Hs-578T = test system: Hs-578T
786-0 = test system: 786-0
A498 = test system: A498
LOX IMVI = test system: LOX IMVI
MCF7 = test system: MCF7
SK-MEL-5 = test system: SK-MEL-5
MDA-N = test system: MDA-N
M14 = test system: M14
DU-145 = test system: DU-145
UACC-62 = test system: UACC-62
K562 = test system: K562
SK-OV-3 = test system: SK-OV-3
SK-MEL-28 = test system: SK-MEL-28
SF-295 = test system: SF-295
EKVX = test system: EKVX
OVCAR-5 = test system: OVCAR-5
MDA-MB-231 = test system: MDA-MB-231
HCC 2998 = test system: HCC 2998
SK-MEL-2 = test system: SK-MEL-2
HCT-15 = test system: HCT-15
UO-31 = test system: UO-31
TK-10 = test system: TK-10
SN12C = test system: SN12C
UACC-257 = test system: UACC-257
HOP-92 = test system: HOP-92
HT-29 = test system: HT-29
OVCAR-8 = test system: OVCAR-8
HCT-116 = test system: HCT-116
SF-539 = test system: SF-539
A549 = test system: A549
SNB-19 = test system: SNB-19
MDA-MB-435 = test system: MDA-MB-435
KM12 = test system: KM12
MOLT-4 = test system: MOLT-4
ACHN = test system: ACHN
SNB-75 = test system: SNB-75
OVCAR-4 = test system: OVCAR-4
CCRF-CEM = test system: CCRF-CEM
SW-620 = test system: SW-620
RPMI-8226 = test system: RPMI-8226
NCI-H522 = test system: NCI-H522
PC-3 = test system: PC-3
NCI-H460 = test system: NCI-H460
SF-268 = test system: SF-268
NCI/ADR-RES = test system: NCI/ADR-RES
Malme-3M = test system: Malme-3M
U-251 = test system: U-251
HOP-62 = test system: HOP-62
HL-60 = test system: HL-60
T47D = test system: T47D

## Cn1c(N2CCCC2)c(C=O)c(=O)n(C)c1=O
NCI-H226
  GI50: 51.8 µM (inactive)
OVCAR-3
  GI50: > 100 µM (inactive)
CAKI-1
  GI50: > 100 µM (inactive)
RXF 393
  GI50: > 100 µM (inactive)
COLO 205
  GI50: > 100 µM (inactive)
NCI-H23
  GI50: > 100 µM (inactive)
IGROV-1
  GI50: > 100 µM (inactive)
BT-549
  GI50: > 100 µM (inactive)
Hs-578T
  GI50: 91.6 µM (inactive)
786-0
  GI50: > 100 µM (inactive)
A498
  GI50: > 100 µM (inactive)
LOX IMVI
  GI50: > 100 µM (inactive)
MCF7
  GI50: > 100 µM (inactive)
SK-MEL-5
  GI50: > 100 µM (inactive)
MDA-N
  GI50: > 100 µM (inactive)
M14
  GI50: > 100 µM (inactive)
DU-145
  GI50: > 100 µM (inactive)
UACC-62
  GI50: > 100 µM (inactive)
K562
  GI50: > 100 µM (inactive)
SK-OV-3
  GI50: > 100 µM (inactive)
SK-MEL-28
  GI50: > 100 µM (inactive)
SF-295
  GI50: > 100 µM (inactive)
EKVX
  GI50: > 100 µM (inactive)
OVCAR-5
  GI50: > 100 µM (inactive)
MDA-MB-231
  GI50: > 100 µM (inactive)
HCC 2998
  GI50: > 100 µM (inactive)
SK-MEL-2
  GI50: > 100 µM (inactive)
HCT-15
  GI50: > 100 µM
UO-31
  GI50: > 100 µM (inactive)
TK-10
  GI50: > 100 µM (inactive)
SN12C
  GI50: > 100 µM (inactive)
UACC-257
  GI50: > 100 µM (inactive)
HOP-92
  GI50: > 100 µM (inactive)
HT-29
  GI50: > 100 µM (inactive)
OVCAR-8
  GI50: > 100 µM (inactive)
HCT-116
  GI50: > 100 µM (inactive)
SF-539
  GI50: > 100 µM (inactive)
A549
  GI50: > 100 µM (inactive)
SNB-19
  GI50: > 100 µM (inactive)
MDA-MB-435
  GI50: > 100 µM (inactive)
KM12
  GI50: > 100 µM (inactive)
MOLT-4
  GI50: > 100 µM (inactive)
ACHN
  GI50: > 100 µM (inactive)
SNB-75
  GI50: 14.1 µM (inactive)
OVCAR-4
  GI50: > 100 µM (inactive)
CCRF-CEM
  GI50: > 100 µM (inactive)
SW-620
  GI50: > 100 µM (inactive)
RPMI-8226
  GI50: > 100 µM (inactive)
NCI-H522
  GI50: > 100 µM (inactive)
PC-3
  GI50: > 100 µM (inactive)
NCI-H460
  GI50: > 100 µM (inactive)
SF-268
  GI50: 96.8 µM (inactive)
NCI/ADR-RES
  GI50: > 100 µM (inactive)
Malme-3M
  GI50: 78.5 µM (inactive)
U-251
  GI50: > 100 µM (inactive)
HOP-62
  GI50: > 100 µM (inactive)
HL-60
  GI50: > 100 µM (inactive)
T47D
  GI50: > 100 µM (inactive)

## CC(C)C(C)C(O)C(O)C(C)C1CCC2C3COC(=O)C4CC(O)C(O)CC4(C)C3CCC12C (configuration not stated)
NCI-H226
  GI50: 23.2 µM (inactive)
CAKI-1
  GI50: 11.7 µM (inactive)
RXF 393
  GI50: 20.2 µM (inactive)
COLO 205
  GI50: 94 µM (inactive)
NCI-H23
  GI50: 92.7 µM (inactive)
IGROV-1
  GI50: > 100 µM (inactive)
BT-549
  GI50: 88.3 µM (inactive)
Hs-578T
  GI50: 78.7 µM (inactive)
786-0
  GI50: > 100 µM (inactive)
A498
  GI50: > 100 µM (inactive)
LOX IMVI
  GI50: > 100 µM (inactive)
MCF7
  GI50: 56.4 µM (inactive)
SK-MEL-5
  GI50: 35 µM (inactive)
MDA-N
  GI50: 56 µM (inactive)
M14
  GI50: > 100 µM (inactive)
DU-145
  GI50: > 100 µM (inactive)
UACC-62
  GI50: > 100 µM (inactive)
K562
  GI50: 39 µM (inactive)
SK-OV-3
  GI50: > 100 µM (inactive)
SK-MEL-28
  GI50: > 100 µM (inactive)
SF-295
  GI50: 78.5 µM (inactive)
EKVX
  GI50: 43.7 µM (inactive)
OVCAR-5
  GI50: > 100 µM (inactive)
MDA-MB-231
  GI50: > 100 µM (inactive)
HCC 2998
  GI50: > 100 µM (inactive)
SK-MEL-2
  GI50: > 100 µM (inactive)
HCT-15
  GI50: 66.1 µM
UO-31
  GI50: 58.1 µM (inactive)
TK-10
  GI50: > 100 µM (inactive)
SN12C
  GI50: 33.7 µM (inactive)
UACC-257
  GI50: > 100 µM (inactive)
HOP-92
  GI50: 32.8 µM (inactive)
HT-29
  GI50: 35.9 µM (inactive)
OVCAR-8
  GI50: 62.8 µM (inactive)
HCT-116
  GI50: > 100 µM (inactive)
SF-539
  GI50: > 100 µM (inactive)
A549
  GI50: 48.9 µM (inactive)
SNB-19
  GI50: 28.1 µM (inactive)
MDA-MB-435
  GI50: > 100 µM (inactive)
KM12
  GI50: 50.2 µM (inactive)
MOLT-4
  GI50: 27.1 µM (inactive)
ACHN
  GI50: 25.4 µM (inactive)
OVCAR-4
  GI50: 59 µM (inactive)
CCRF-CEM
  GI50: 22.8 µM (inactive)
SW-620
  GI50: > 100 µM (inactive)
NCI-H522
  GI50: 55.2 µM (inactive)
PC-3
  GI50: 46.9 µM (inactive)
NCI-H460
  GI50: 57.9 µM (inactive)
SF-268
  GI50: 79.3 µM (inactive)
NCI/ADR-RES
  GI50: > 100 µM (inactive)
Malme-3M
  GI50: > 100 µM (inactive)
U-251
  GI50: 62.5 µM (inactive)
HL-60
  GI50: > 10 µM (inactive)
T47D
  GI50: 40.9 µM (inactive)
